In patent publication EP4385491A1, “PH-STABLE BIOTECHNOLOGY COMPOSITION BASED ON LACCASE FOR TARGETED DEGRADATION OF COLOURED MELANOIDINES AND/OR PHENOLIC ORGANIC COMPOUNDS ON DENSE SURFACES” (SkyLab AG, priority 2022, dated 2024):

Settings: pH 3.0, coffee solution, 60 min

- Degradation of melanoidins and phenolic organic compounds, % (40 ± 1°C, 325 nm, laccase 0.25 wt.% raw material (0.0875 wt.% active), hydrogen peroxide 0.01%): -6.0%
SMILES: OO [0.01% hydrogen peroxide solution, hydrogen peroxide]
- activity against melanoidins and phenolic organic compounds (in words): low degradation
